Patent US9803180B2, “S-adenosylmethionine (SAM) synthase variants for the synthesis of artificial cofactors” (LEIBNIZ-INSTITUT FUR PFLANZENBIOCHEMIE STIFTUNG DES …, priority 2013, dated 2017)
Entries after “also recorded” stand apart in the source; their conditions may differ.

Experiments:
Assay type in all cases: biochemical
[1] = Kinetic parameters for the conversion of S-alkylhomocysteines; standard SAM synthase assay, photometric detection of the cleaved phosphate
From the text: (§1) FIGS. 3A-3E show the rates of conversion of amino acid substrates catalyzed by the SAMS enzyme from Bacillus subtilis (FIG. 3A) and its variants I317V (FIG. 3B), I317A (FIG. 3C), I105V/I317A (FIG. 3D) or I105A/I317A (FIG. 3E) as a function of the substrate concentration. The reaction with L-methionine (open circles), D,L-methionine (closed circles), D,L-methionine-(methyl-D3) (x), D,L-ethionine (hatched circles), S-n-propyl-D,L-homocysteine (open triangles), S-n-butyl-D,L-homocysteine (closed triangles) or S-(2-methylvinyl)-D,L-homocysteine (diamonds) was assessed by spectrophotometric determination of phosphate which is released from the co-substrate ATP during the reaction.
The kinetic parameters for the conversion of S-alkylhomocysteines by Bacillus subtitlis SAM synthase and its variants as shown in Table 1 were calculated from the conversion rates of methionine and analogues as a function of the substrate concentration […] which were determined by the standard SAM synthase assay known in the art, i.e. by photometric detection of the cleaved phosphate.

[2] = Preparative synthetic reactions (200 μmol): conversion of the L-amino acid; conditions: for conversion: 8 hours; for L-amino acid converted: 18 hours, 200 μmol scale
Procedure: The suitability of the wild-type protein and of variants with appropriate substrate specificity (I317V and I317A) for the synthesis of SAM and analogues was evaluated by high-performance thin-layer chromatography. Since the enzymes were not inhibited by the D-enantiomer of the amino acid substrates, methionine and its derivatives could be advantageously applied as racemic mixture of its stereoisomeres in these reactions. […] Accordingly, transformation of methionine and ethionine by SAMS-I317V in preparative synthetic reactions led to high conversion rates for the amino acid substrates. The syntheses were performed similar to the kinetic experiments but in larger scale (200 μmol). After prolonged incubation (18 hours) to reach maximum product yield, 84 and 89% of the L-amino acid was converted. In the production of the n-propyl- and n-butyl analogues of SAM by the variant I317A, 43% and 28% of conversion could be reached after 8 hours of reaction time. After product purification by cation exchange chromatography on SP-Sephadex C-25, SAM and its homologs could be recovered in final yields of 25, 17, 8 and 11%, respectively. As proven by ^1H NMR, the enzymatically produced SAM contained a high excess (≧90%) of the biologically active (S,S)-epimer.

[3] = Time course of formation of SAM and SAM derivatives, analyzed by HPTLC; conditions: racemic amino acid 10 mM, enzyme 10 mU ml^−1; in words
Procedure: FIGS. 4A-4C show the formation of SAM and SAM derivatives by the SAM synthase enzyme from Bacillus subtilis (FIG. 4A) or its variants I317V (FIG. 4B) and I317A (FIG. 4C). The conversion of the L-enantiomer of methionine (closed circles), ethionine (hatched circles), S-n-propylhomocysteine (open triangles) and S-n-butylhomocysteine (closed triangles) from the corresponding racemic amino acid (10 mM) was performed in the presence of equal amounts of enzyme (10 mU ml^−1). The reactions were analyzed by HPTLC.
The suitability of the wild-type protein and of variants with appropriate substrate specificity (I317V and I317A) for the synthesis of SAM and analogues was evaluated by high-performance thin-layer chromatography. Since the enzymes were not inhibited by the D-enantiomer of the amino acid substrates, methionine and its derivatives could be advantageously applied as racemic mixture of its stereoisomeres in these reactions. […] Accordingly, transformation of methionine and ethionine by SAMS-I317V in preparative synthetic reactions led to high conversion rates for the amino acid substrates. The syntheses were performed similar to the kinetic experiments but in larger scale (200 μmol). After prolonged incubation (18 hours) to reach maximum product yield, 84 and 89% of the L-amino acid was converted. […]

[4] = Substrate spectrum: conversion of methionine and S-alkylhomocysteine derivatives by SAM synthase and variants; conditions: for substrate acceptance (which amino acid substrates are converted): in words
From the text: as §1
For these studies, a series of S-alkylhomocysteines with linear (D,L-methionine-(methyl-D3), -ethionine, -propionine and -buthionine), branched (D,L-isopropionine and -isobuthionines), unsaturated (D,L-methylvinylhomocysteine) and functionalized (D,L-hydroxyethionine and -carboxymethionine) alkyl groups were synthesized from D,L-homocysteine thiolactone and tested for conversion by the cloned (wildtype) SAM synthase.
As derived from a homology model which is based on the crystal structure of the protein from E. coli (PDB code 1XRA), a hydrophobic cleft formed from two conserved isoleucine residues hinders the generation of cofactor analogues from amino acid substrates with bulky alkyl residues (FIG. 2). Accordingly, both residues were exchanged against less voluminous amino acids by site-directed mutagenesis.
To further probe the role of the proximate isoleucine residue I105 in substrate recognition, the variants I105V/I317A and I105A/I317A were generated. […] Compared to the wild-type enzyme (FIG. 3A), substrate specificity of the variant I105A/I317A (FIG. 3E) is inverted (S-n-propylhomocysteine>S-n-butylhomocysteine>ethionine>>methionine).

[5] = Activity of further position 317 SAM synthase variants (Example 4)
From the text: The influence of position 317 on catalytic turnover and its crucial role in determination of substrate spectrum was additionally confirmed by introduction of other small- and medium-sized amino acid residues.

[6] = substrate S-(2-methylvinyl)-D,L-homocysteine
[7] = substrate S-n-butyl-D,L-homocysteine
[8] = substrate S-n-propyl-D,L-homocysteine
[9] = substrate D,L-methionine-(methyl-D3)

“I317A: I317A SAM synthase variant (SEQ ID NO: 2) of Bacillus subtilis SAM synthase” showed an S0.5 ([1]; substrate D,L-ethionine) of 2.99 ± 0.23 mM, a Vmax ([1]; substrate D,L-ethionine) of 44.1 ± 1.6 nmol/min/mg and a h ([1]; substrate D,L-ethionine) of 1.2 ± 0.1. For the same substance, the S0.5 ([1]; substrate D,L-methionine) was 0.92 ± 0.05 mM, the Vmax ([1]; substrate D,L-methionine) was 37.7 ± 0.8 nmol/min/mg and the h ([1]; substrate D,L-methionine) was 1.1 ± 0.1. It also gave an S0.5 ([1]; substrate L-methionine) of 0.46 ± 0.02 mM, a Vmax ([1]; substrate L-methionine) of 34.8 ± 0.5 nmol/min/mg and a h ([1]; substrate L-methionine) of 1.3 ± 0.1. The S0.5 [1, 6] was 0.79 ± 0.04 mM, the Vmax [1, 6] was 22.4 ± 0.4 nmol/min/mg and the h [1, 6] was 1.2 ± 0.1. For the same substance, the S0.5 [1, 7] was 3.56 ± 0.45 mM, the Vmax [1, 7] was 35.4 ± 2.6 nmol/min/mg and the h [1, 7] was 1.4 ± 0.1. It also gave an S0.5 [1, 8] of 0.90 ± 0.05 mM, a Vmax [1, 8] of 34.2 ± 0.7 nmol/min/mg and a h [1, 8] of 1.1 ± 0.1. The conversion ([2]; production of n-butyl analogue of SAM) was 28%, the conversion ([2]; production of n-propyl analogue of SAM) was 43% and the “product inhibition by SAM” value [3] was “much less affected by product inhibition; also recorded: less pronounced”. For the same substance, the “substrate acceptance (which amino acid substrates are converted)” value (shortened to “substrate acceptance”) [4] was “active on ethionine, propionine, buthionine and the unsaturated D,L-methylvinylhomocysteine”.

With “Wild-type: wildtype Bacillus subtilis S-Adenosylmethionine (SAM) synthase, SEQ ID NO: 1, recombinantly expressed in E. coli BL21 (DE3) [reference compound]” the “inhibition by the D-enantiomer of methionine” value ([1]; FIG. 3A, in words) was “not inhibited by the D-enantiomer of methionine”, the S0.5 ([1]; substrate D,L-methionine) was 1.92 ± 0.12 mM and the Vmax ([1]; substrate D,L-methionine) was 90.8 ± 1.6 nmol/min/mg. The h ([1]; substrate D,L-methionine) was 1.7 ± 0.2, the S0.5 [1, 9] was 1.86 ± 0.07 mM and the Vmax [1, 9] was 79.8 ± 2.3 nmol/min/mg. The h [1, 9] was 2.2 ± 0.2, the S0.5 ([1]; substrate L-methionine) was 1.04 ± 0.14 mM and the Vmax ([1]; substrate L-methionine) was 93.2 ± 3.1 nmol/min/mg. For the same substance, the h ([1]; substrate L-methionine) was 1.1 ± 0.1, the “product inhibition by SAM” value [3] was “inhibited by its product SAM” and the “substrate acceptance” value [4] was “did not accept any of these methionine derivatives”.

With “I105A/I317A: I105A/I317A SAM synthase variant (SEQ ID NO: 4)” the S0.5 ([1]; substrate D,L-ethionine) was 3.91 ± 0.27 mM, the Vmax ([1]; substrate D,L-ethionine) was 3.0 ± 1.8 nmol/min/mg and the h ([1]; substrate D,L-ethionine) was 2.9 ± 0.4. For the same substance, the Vmax ([1]; substrate D,L-methionine) was 0.8 ± 0.2 nmol/min/mg, the S0.5 [1, 7] was “=10.0 mM” and the Vmax [1, 7] was “=4.0 ± 0.2 nmol min^-1 mg^-1”. For the same substance, the h [1, 7] was 0.8 ± 0.1, the S0.5 [1, 8] was “=10.0 mM” and the Vmax [1, 8] was “=10.8 ± 0.1 nmol min^-1 mg^-1”. The h [1, 8] was 1.0 ± 0.1, the “substrate specificity (rank order)” value ([4]; FIG. 3E, compared to wild-type) was “S-n-propylhomocysteine>S-n-butylhomocysteine>ethionine>>methionine” and the “substrate acceptance” value [4] was “acceptance of the artificial long-chain substrates only; also recorded: prefer long-chain substrates”.

“I317V: I317V SAM synthase variant (SEQ ID NO: 3) of Bacillus subtilis SAM synthase” gave an S0.5 ([1]; substrate D,L-ethionine) of 10.94 ± 2.70 mM, a Vmax ([1]; substrate D,L-ethionine) of 51.2 ± 9.1 nmol/min/mg and a h ([1]; substrate D,L-ethionine) of 1.3 ± 0.1. For the same substance, the S0.5 ([1]; substrate D,L-methionine) was 1.71 ± 0.12 mM, the Vmax ([1]; substrate D,L-methionine) was 446.2 ± 13.8 nmol/min/mg and the h ([1]; substrate D,L-methionine) was 1.3 ± 0.1. The S0.5 ([1]; substrate L-methionine) was 0.72 ± 0.04 mM, the Vmax ([1]; substrate L-methionine) was 408.0 ± 7.7 nmol/min/mg and the h ([1]; substrate L-methionine) was 1.2 ± 0.1. The L-amino acid converted ([2]; ethionine) was 89%, the L-amino acid converted ([2]; methionine) was 84% and the “substrate acceptance” value [4] was “also converts ethionine”.

For “I317C: Bacillus subtilis SAM synthase with position 317 substituted by cysteine; tolerably active enzyme”, the “activity (conversion)” value ([5]; 5 mM D,L-buthionine) was 6.0 ± 0.3 nmol/min/mg, the “activity (conversion)” value ([5]; 5 mM D,L-ethionine) was 16.4 ± 0.7 nmol/min/mg and the “activity (conversion)” value ([5]; 5 mM D,L-methionine) was 59.4 ± 0.4 nmol/min/mg. For the same substance, the “activity (conversion)” value ([5]; 5 mM D,L-propionine) was 8.4 ± 0.3 nmol/min/mg.

In the case of “I105V/I317A: I105V/I317A SAM synthase variant (SEQ ID NO: 6)”, the S0.5 ([1]; substrate D,L-ethionine) is reported as 4.25 ± 0.20 mM, the Vmax ([1]; substrate D,L-ethionine) is reported as 5.7 ± 0.3 nmol/min/mg and the h ([1]; substrate D,L-ethionine) is reported as 4.6 ± 0.8. It also gave an S0.5 ([1]; substrate D,L-methionine) of 3.77 ± 1.02 mM, a Vmax ([1]; substrate D,L-methionine) of 17.0 ± 2.0 nmol/min/mg and a h ([1]; substrate D,L-methionine) of 1.0 ± 0.1. It also gave an S0.5 [1, 7] of 4.20 ± 0.41 mM, a Vmax [1, 7] of 11.9 ± 0.9 nmol/min/mg and a h [1, 7] of 2.0 ± 0.2. It also gave an S0.5 [1, 8] of 1.86 ± 0.41 mM, a Vmax [1, 8] of 17.7 ± 1.5 nmol/min/mg and a h [1, 8] of 1.0 ± 0.1. The “substrate acceptance” value [4] was “prefer long-chain substrates”.
